Measured values from ChEMBL document CHEMBL1208727, “Synthesis and pharmacological evaluation of aryl aminosulfonamide derivatives as potent 5-HT(6) receptor antagonists” (Bioorg Med Chem Lett, 2010).
Activity calls are given as the source filed them. The rule behind the calls is not given here.

Key:
[1] = molecular target: 5-hydroxytryptamine receptor 6 (Homo sapiens, UniProt P50406); test: Binding affinity to human recombinant 5HT6 receptor expressed in CHO cells coexpressing pCRE-Luc assessed as inhibition of serotonin-induced increase in cAMP level by luciferase reporter gene assay; assay type: cell-based
5-hydroxytryptamine receptor 6, sequence (P50406 whole entry): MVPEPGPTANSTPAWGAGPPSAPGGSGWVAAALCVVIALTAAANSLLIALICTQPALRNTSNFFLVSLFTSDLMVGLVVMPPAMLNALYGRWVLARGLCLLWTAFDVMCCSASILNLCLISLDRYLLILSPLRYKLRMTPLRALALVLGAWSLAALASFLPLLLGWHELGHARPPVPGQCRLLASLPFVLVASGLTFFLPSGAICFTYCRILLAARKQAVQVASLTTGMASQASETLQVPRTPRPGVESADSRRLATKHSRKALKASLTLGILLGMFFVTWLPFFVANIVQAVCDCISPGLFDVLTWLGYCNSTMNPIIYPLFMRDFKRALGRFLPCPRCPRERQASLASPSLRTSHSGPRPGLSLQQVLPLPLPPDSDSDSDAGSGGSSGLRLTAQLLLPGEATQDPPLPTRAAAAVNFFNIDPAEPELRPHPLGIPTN

Cytochrome P450 2D6 = Cytochrome P450 2D6 (Homo sapiens, UniProt P10635); test: Inhibition of human CY2D6
Cytochrome P450 2D6, sequence (P10635 whole entry): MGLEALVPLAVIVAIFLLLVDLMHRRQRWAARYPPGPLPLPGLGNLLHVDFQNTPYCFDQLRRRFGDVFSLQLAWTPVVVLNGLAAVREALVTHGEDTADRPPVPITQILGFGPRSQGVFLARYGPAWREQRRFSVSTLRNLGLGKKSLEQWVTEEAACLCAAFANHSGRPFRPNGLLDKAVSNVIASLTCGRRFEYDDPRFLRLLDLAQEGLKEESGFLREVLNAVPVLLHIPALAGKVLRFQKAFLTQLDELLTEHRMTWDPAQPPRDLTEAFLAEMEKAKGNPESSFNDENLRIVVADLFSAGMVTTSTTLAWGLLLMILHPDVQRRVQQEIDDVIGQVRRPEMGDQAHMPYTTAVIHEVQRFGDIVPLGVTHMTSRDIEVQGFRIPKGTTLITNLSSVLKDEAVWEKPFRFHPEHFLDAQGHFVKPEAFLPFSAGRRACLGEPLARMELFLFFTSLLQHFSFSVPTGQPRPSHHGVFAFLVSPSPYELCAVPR

Rattus norvegicus [2] = test: Cognitive enhancing effect in Wistar rat at 10 mg/kg, po by novel object recognition test; assay type: functional, organism-based; parameters: dose 10 mg/kg
[3] = Half life in Wistar rat at 10 mg/kg, iv; assay type: ADME, organism-based; parameters: dose 10 mg/kg, route intravenous; conditions: in vivo
[4] = AUCt in Wistar rat at 10 mg/kg, iv; assay type: ADME, organism-based; parameters: dose 10 mg/kg, route intravenous; conditions: plasma
[5] = AUCt in Wistar rat at 10 mg/kg, po; assay type: ADME, organism-based; parameters: dose 10 mg/kg, route oral; conditions: plasma
[6] = Clearance in Wistar rat at 10 mg/kg, po; assay type: ADME, organism-based; parameters: dose 10 mg/kg, route oral; conditions: in vivo
Rattus norvegicus [7] = test: Apparent volume of distribution in Wistar rat at 10 mg/kg, po; assay type: ADME, organism-based; parameters: dose 10 mg/kg, route oral; conditions: in vivo
[8] = Cmax in Wistar rat at 10 mg/kg, po; assay type: ADME, organism-based; parameters: dose 10 mg/kg, route oral; conditions: in vivo
[9] = Metabolic stability in Wistar rat liver microsomes at […] after 30 mins; assay type: ADME, Microsome; conditions: read-out: Stability
[10] = Half life in Wistar rat at 10 mg/kg, po; assay type: ADME, organism-based; parameters: dose 10 mg/kg, route oral; conditions: in vivo
Rattus norvegicus [11] = species: Rattus norvegicus; test: Cognitive enhancing effect against scopolamine-induced acquisition memory deficit in Wistar rat by morris water maze test; assay type: functional, organism-based
Cytochrome P450 3A4 = Cytochrome P450 3A4 (Homo sapiens, UniProt P08684); test: Inhibition of human CY3A4
Cytochrome P450 3A4, sequence (P08684 whole entry): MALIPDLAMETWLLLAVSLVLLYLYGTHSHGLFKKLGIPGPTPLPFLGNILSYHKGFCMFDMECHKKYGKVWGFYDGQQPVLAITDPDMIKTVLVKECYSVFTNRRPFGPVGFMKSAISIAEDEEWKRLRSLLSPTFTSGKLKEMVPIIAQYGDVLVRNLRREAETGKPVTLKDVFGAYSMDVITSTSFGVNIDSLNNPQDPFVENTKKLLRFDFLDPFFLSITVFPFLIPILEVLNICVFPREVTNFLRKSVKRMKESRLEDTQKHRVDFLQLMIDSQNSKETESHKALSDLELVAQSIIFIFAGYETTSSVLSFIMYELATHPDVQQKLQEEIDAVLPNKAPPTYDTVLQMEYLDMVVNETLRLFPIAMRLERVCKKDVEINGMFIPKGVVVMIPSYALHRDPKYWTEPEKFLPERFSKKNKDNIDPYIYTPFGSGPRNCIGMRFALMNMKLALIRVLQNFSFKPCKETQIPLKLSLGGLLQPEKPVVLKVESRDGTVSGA

[12] = Metabolic stability in human liver microsomes at […] after 30 mins; assay type: ADME, Microsome; conditions: read-out: Stability
[13] = Oral bioavailability in Wistar rat at 10 mg/kg; assay type: ADME, organism-based; conditions: in vivo
[14] = Apparent volume of distribution in Wistar rat at 10 mg/kg, iv; assay type: ADME, organism-based; parameters: dose 10 mg/kg, route intravenous; conditions: in vivo, read-out: Vz
[15] = Clearance in Wistar rat at 10 mg/kg, iv; assay type: ADME, organism-based; parameters: dose 10 mg/kg, route intravenous; conditions: in vivo
[16] = Ratio of drug level brain to plasma in Wistar rat; assay type: ADME
[17] = Cmax in Wistar rat at 10 mg/kg, iv; assay type: ADME, organism-based; parameters: dose 10 mg/kg, route intravenous; conditions: in vivo

Row | SMILES | Kb [1] | also measured
1 | COc1ccc(S(=O)(=O)NCc2ccccc2)cc1N(C)C1CCN(C)CC1 | 3.9 nM | –
2 | COc1ccc(S(=O)(=O)Nc2cc(Cl)cc(Cl)c2OC)cc1NC1CCN(C)CC1 | 0.02 nM | IC50 (Cytochrome P450 2D6): 41.7 µM; Activity (Rattus norvegicus [2]): Active; half-life [3]: 178 min; AUC(0-t) [4]: 2530 ng·h/mL; AUC(0-t) [5]: 941 ng·h/mL; CL/F [6]: 207 mL/min/kg; Vz (Rattus norvegicus [7]): 34332 mL/kg; Cmax [8]: 536 ng/mL; remaining at 0.5 h, […] [9]: 77%; half-life [10]: 103 min; Activity (Rattus norvegicus [11]): Active; IC50 (Cytochrome P450 3A4): 8.44 µM; remaining at 0.5 h, […] [12]: 21%; bioavailability [13]: 38%; Vd [14]: 16.9 L/kg; clearance [15]: 65.5 mL/min/kg; Kp [16]: 0.08; Cmax [17]: 1920 ng/mL
3 | CCc1ccc(S(=O)(=O)Nc2ccccc2Br)cc1NC1CCNCC1 | 0.1 nM | –
4 | CCN(c1cc(S(=O)(=O)Nc2ccccc2)ccc1OC)C1CCN(C)CC1 | 18.6 nM | –
5 | COc1ccc(S(=O)(=O)Nc2ccccc2Br)cc1N(C)C1CCNCC1 | 0.2 nM | –
6 | COc1ccc(S(=O)(=O)NCc2ccccc2)cc1N(C)C1CCNCC1 | 2.65 nM | –
7 | COc1ccc(S(=O)(=O)Nc2ccccc2Cl)cc1N(C)C1CCNCC1 | 0.86 nM | –
8 | CN1CCC(Nc2cccc(S(=O)(=O)Nc3c(F)cc(F)cc3Br)c2)CC1 | > 10000 nM | –
9 | CCc1ccc(S(=O)(=O)Nc2cc(Cl)cc(Cl)c2OC)cc1NC1CCN(C)CC1 | 1.65 nM | –
10 | COc1ccc(NS(=O)(=O)c2ccccc2OC(F)F)cc1N1CCNCC1 | – | Ki [1]: < 10 nM
11 | Cc1ccc(NS(=O)(=O)c2cccc(NC3CCN(C)CC3)c2)c(C)c1 | > 10000 nM | –
12 | CN1CCC(Nc2cccc(S(=O)(=O)Nc3ccc(Br)cc3F)c2)CC1 | 12.2 nM | –

Now from value to molecule, other results behind:

Row | Kb [1] | SMILES | also measured
13 | 0.48 nM | COc1ccc(S(=O)(=O)Nc2ccccc2Cl)cc1NC1CCNCC1 | –
14 | 26 nM | COc1ccc(S(=O)(=O)NCCc2ccccc2Cl)cc1NC1CCN(C)CC1 | –
15 | 1.31 nM | Cc1ccc(S(=O)(=O)Nc2ccccc2Br)cc1NC1CCN(C)CC1 | –
16 | 0.6 nM | COc1ccc(S(=O)(=O)Nc2ccccc2Br)cc1NC1CCNCC1 | –
17 | 3.36 nM | COc1ccc(S(=O)(=O)NCc2ccccc2)cc1NC1CCN(C)CC1 | –
18 | 0.19 nM | CCc1ccc(S(=O)(=O)Nc2ccccc2Br)cc1NC1CCN(C)CC1 | IC50 (Cytochrome P450 2D6): > 45 µM; remaining at 0.5 h, […] [9]: 99%; IC50 (Cytochrome P450 3A4): 9.62 µM; remaining at 0.5 h, […] [12]: 26%
19 | 0.02 nM | COc1ccc(S(=O)(=O)Nc2cc(C)ccc2OC)cc1NC1CCN(C)CC1 | –
20 | 10 nM | COc1ccc(NS(=O)(=O)c2cccc(NC3CCN(C)CC3)c2)c(OC)c1 | –
21 | 38 nM | COc1ccc(S(=O)(=O)NCCc2ccccc2Br)cc1NC1CCN(C)CC1 | –
22 | 1.23 nM | COc1ccc(S(=O)(=O)Nc2ccccc2)cc1NC1CCN(C)CC1 | –
23 | 4.26 nM | COc1ccc(S(=O)(=O)NCc2ccccc2)cc1NC1CCNCC1 | –
24 | 0.584 nM | COc1ccc(S(=O)(=O)Nc2ccccc2Cl)cc1NC1CCN(C)CC1 | –
25 | 16 nM | COc1ccc(OC)c(NS(=O)(=O)c2cccc(NC3CCN(C)CC3)c2)c1 | –
26 | 0.296 nM | COc1ccc(S(=O)(=O)Nc2ccccc2Br)cc1NC1CCN(C)CC1 | –
